Assay results taken from PMC5218480 (PLoS ONE, 2017).

System: MV-4-11 cells
Test: Gene expression microarray analysis (Affymetrix PrimeView) and GSEA
Assay type: cell-based, human
Design: RFU PODN (11730768_x_at) / Fold change /veh PODN (11730768_x_at) / RFU LINC00158 (11744669_a_at) / Fold change /veh LINC00158 (11744669_a_at) / RFU DUSP10 (11751237_a_at) / Fold change /veh DUSP10 (11751237_a_at) / RFU ID3 (11757404_x_at) / Fold change /veh ID3 (11757404_x_at) / RFU PLEKHG5 (11737974_s_at) / Fold change /veh PLEKHG5 (11737974_s_at) / RFU LRRC4B (11730491_at) / Fold change /veh LRRC4B (11730491_at) / RFU GIMAP4 (11747438_a_at) / Fold change /veh GIMAP4 (11747438_a_at) / RFU KRT8 (11758183_x_at) / Fold change /veh KRT8 (11758183_x_at) / RFU CNN1 (11734310_a_at) / Fold change /veh CNN1 (11734310_a_at) / RFU VPS37D (11726825_at) / Fold change /veh VPS37D (11726825_at) / RFU C10orf10 (11716522_x_at) / Fold change /veh C10orf10 (11716522_x_at) / RFU KIR2DL2 /// KIR2DL4 /// KIR2DL5A /// KIR2DL5B /// KIR2DS1 /// KIR2DS2 /// KIR2DS3 /// KIR2DS4 /// KIR3DL3 /// KIR3DL3 /// KIR3DS1 (11738374_at) / Fold change /veh KIR2DL2 /// KIR2DL4 /// KIR2DL5A /// KIR2DL5B /// KIR2DS1 /// KIR2DS2 /// KIR2DS3 /// KIR2DS4 /// KIR3DL3 /// KIR3DL3 /// KIR3DS1 (11738374_at) / RFU C1QL1 (11718748_at) / Fold change /veh C1QL1 (11718748_at) / RFU TMPRSS4 (11747572_a_at) / Fold change /veh TMPRSS4 (11747572_a_at) / RFU HAMP (11756126_x_at) / Fold change /veh HAMP (11756126_x_at) / RFU RNFT2 (11725882_a_at) / Fold change /veh RNFT2 (11725882_a_at) / RFU NR4A2 (11747474_a_at) / Fold change /veh NR4A2 (11747474_a_at) / RFU ABCC12 (11746883_a_at) / Fold change /veh ABCC12 (11746883_a_at) / RFU TMEM136 (11760407_x_at) / Fold change /veh TMEM136 (11760407_x_at) / RFU CLDN22 /// WWC2 (11732394_at) / Fold change /veh CLDN22 /// WWC2 (11732394_at) / RFU HLA-DPB1 (11760878_x_at) / Fold change /veh HLA-DPB1 (11760878_x_at) / RFU SPINT1 (11716480_a_at) / Fold change /veh SPINT1 (11716480_a_at) / RFU GAP43 (11754022_s_at) / Fold change /veh GAP43 (11754022_s_at) / RFU A4GNT (11735810_at) / Fold change /veh A4GNT (11735810_at) / RFU PRB3 (11715151_x_at) / Fold change /veh PRB3 (11715151_x_at) / RFU TUBB4B (11761932_at) / Fold change /veh TUBB4B (11761932_at) / RFU CAPN14 (11732068_a_at) / Fold change /veh CAPN14 (11732068_a_at) / RFU TMCC2 (11721928_a_at) / Fold change /veh TMCC2 (11721928_a_at) / RFU IRGQ (11745062_a_at) / Fold change /veh IRGQ (11745062_a_at) / RFU FAM174B (11720279_a_at) / Fold change /veh FAM174B (11720279_a_at) / RFU TMPRSS4 (11748680_a_at) / Fold change /veh TMPRSS4 (11748680_a_at) / RFU FAM212B (11763350_a_at) / Fold change /veh FAM212B (11763350_a_at) / RFU PLEKHG5 (11743358_a_at) / Fold change /veh PLEKHG5 (11743358_a_at) / RFU ZSCAN30 (11745921_a_at) / Fold change /veh ZSCAN30 (11745921_a_at) / RFU CMKLR1 (11741424_a_at) / Fold change /veh CMKLR1 (11741424_a_at) / RFU LOC101060620 /// MAPK8IP1 (11723275_at) / Fold change /veh LOC101060620 /// MAPK8IP1 (11723275_at) / RFU SPTSSB (11747773_x_at) / Fold change /veh SPTSSB (11747773_x_at) / RFU PRSS12 (11739890_at) / Fold change /veh PRSS12 (11739890_at) / RFU BIN1 (11741810_x_at) / Fold change /veh BIN1 (11741810_x_at) / RFU WNT11 (11732464_a_at) / Fold change /veh WNT11 (11732464_a_at) / RFU C10orf10 (11716521_a_at) / Fold change /veh C10orf10 (11716521_a_at) / RFU C5orf56 (11738089_at) / Fold change /veh C5orf56 (11738089_at) / RFU CYB561 (11721691_x_at) / Fold change /veh CYB561 (11721691_x_at) / RFU ANKRD19P (11752326_a_at) / Fold change /veh ANKRD19P (11752326_a_at) / RFU OR2T12 /// OR2T33 /// OR2T8 (11738714_s_at) / Fold change /veh OR2T12 /// OR2T33 /// OR2T8 (11738714_s_at) / RFU VCAN (11748164_a_at) / Fold change /veh VCAN (11748164_a_at) / RFU JSRP1 (11732532_at) / Fold change /veh JSRP1 (11732532_at) / RFU KRTAP10-11 (11738290_x_at) / Fold change /veh KRTAP10-11 (11738290_x_at) / RFU MYO3A (11730013_a_at) / Fold change /veh MYO3A (11730013_a_at) / RFU EBF3 (11725865_a_at) / Fold change /veh EBF3 (11725865_a_at) / RFU CAMK2N1 (11719241_x_at) / Fold change /veh CAMK2N1 (11719241_x_at) / RFU C5orf56 (11738088_a_at) / Fold change /veh C5orf56 (11738088_a_at) / RFU OLFML3 (11715873_a_at) / Fold change /veh OLFML3 (11715873_a_at) / RFU LOC100653217 /// NTM (11731650_a_at) / Fold change /veh LOC100653217 /// NTM (11731650_a_at) / RFU MAPK11 (11762145_a_at) / Fold change /veh MAPK11 (11762145_a_at) / RFU FIZ1 (11724087_x_at) / Fold change /veh FIZ1 (11724087_x_at) / RFU OASL (11726364_x_at) / Fold change /veh OASL (11726364_x_at) / RFU SOX15 (11748057_x_at) / Fold change /veh SOX15 (11748057_x_at) / RFU CD79A (11719716_a_at) / Fold change /veh CD79A (11719716_a_at) / RFU HIST1H1D (11736915_at) / Fold change /veh HIST1H1D (11736915_at) / RFU CASKIN2 (11723855_a_at) / Fold change /veh CASKIN2 (11723855_a_at) / RFU LOC730098 (11760151_x_at) / Fold change /veh LOC730098 (11760151_x_at) / RFU OR4N2 (11742367_at) / Fold change /veh OR4N2 (11742367_at) / RFU PRRT2 (11749266_a_at) / Fold change /veh PRRT2 (11749266_a_at) / RFU SNX32 (11753110_a_at) / Fold change /veh SNX32 (11753110_a_at) / RFU CDHR5 (11726645_a_at) / Fold change /veh CDHR5 (11726645_a_at) / RFU RCAN1 (11760418_a_at) / Fold change /veh RCAN1 (11760418_a_at) / RFU FAM167A (11723789_a_at) / Fold change /veh FAM167A (11723789_a_at) / RFU FAM26E (11764081_at) / Fold change /veh FAM26E (11764081_at) / RFU ISYNA1 (11749810_s_at) / Fold change /veh ISYNA1 (11749810_s_at) / RFU ACY1 (11761880_at) / Fold change /veh ACY1 (11761880_at) / RFU 11764098_at / Fold change /veh 11764098_at / RFU SAMD14 (11745864_x_at) / Fold change /veh SAMD14 (11745864_x_at) / RFU NPB (11741838_a_at) / Fold change /veh NPB (11741838_a_at) / RFU TMPRSS6 (11731388_a_at) / Fold change /veh TMPRSS6 (11731388_a_at) / RFU KRTAP10-2 (11738614_at) / Fold change /veh KRTAP10-2 (11738614_at) / RFU ARHGAP8 /// PRR5-ARHGAP8 (11727945_x_at) / Fold change /veh ARHGAP8 /// PRR5-ARHGAP8 (11727945_x_at) / RFU KRTAP5-7 /// NADSYN1 (11734609_at) / Fold change /veh KRTAP5-7 /// NADSYN1 (11734609_at) / RFU RASL12 (11751679_a_at) / Fold change /veh RASL12 (11751679_a_at) / RFU CDKN2B (11736163_a_at) / Fold change /veh CDKN2B (11736163_a_at) / RFU PRF1 (11729649_at) / Fold change /veh PRF1 (11729649_at) / RFU, ZNF638 /// ZNF638-IT1 / Fold change vs veh, ZNF638 /// ZNF638-IT1 / RFU, PANK3 / Fold change vs veh, PANK3 / RFU, SH3YL1 / Fold change vs veh, SH3YL1 / RFU, ZEB2 / Fold change vs veh, ZEB2 / RFU, NRIP1 / Fold change vs veh, NRIP1 / RFU, PTTG1IP / Fold change vs veh, PTTG1IP / RFU, CAPN2 / Fold change vs veh, CAPN2 / RFU, MED14 / Fold change vs veh, MED14 / RFU, SNORA58 / Fold change vs veh, SNORA58 / RFU, C1orf63 / Fold change vs veh, C1orf63 / RFU, LRRFIP1 / Fold change vs veh, LRRFIP1 / RFU, NDUFAF7 / Fold change vs veh, NDUFAF7 / RFU, SLC12A2 / Fold change vs veh, SLC12A2 / RFU, IBTK / Fold change vs veh, IBTK / RFU, ESF1 / Fold change vs veh, ESF1 / Fold change vs veh, TMEM50B / RFU, TAOK1 / Fold change vs veh, TAOK1 / RFU, ACBD3 / Fold change vs veh, ACBD3 / RFU, TMA16 / Fold change vs veh, TMA16 / RFU, RWDD3 / Fold change vs veh, RWDD3 / RFU, BCAT1 / Fold change vs veh, BCAT1 / RFU, EDEM3 / Fold change vs veh, EDEM3 / RFU, TMEM33 / Fold change vs veh, TMEM33 / RFU, WDR75 / Fold change vs veh, WDR75 / RFU, AHCTF1 / Fold change vs veh, AHCTF1 / RFU, TFRC / Fold change vs veh, TFRC / RFU, ZDHHC17 / Fold change vs veh, ZDHHC17 / RFU, NOM1 / Fold change vs veh, NOM1 / RFU, ARL8B / Fold change vs veh, ARL8B / RFU, ZBTB11 / Fold change vs veh, ZBTB11 / RFU, TAMM41 / Fold change vs veh, TAMM41 / RFU, KIAA1704 /// LOC100996395 / Fold change vs veh, KIAA1704 /// LOC100996395 / RFU, ING1 / Fold change vs veh, ING1 / RFU, TRMT61B / Fold change vs veh, TRMT61B / RFU, FUBP3 / Fold change vs veh, FUBP3 / RFU, TP53 / Fold change vs veh, TP53 / RFU, TNKS2 / Fold change vs veh, TNKS2 / RFU, ZFP14 / Fold change vs veh, ZFP14 / RFU, ACTR2 / Fold change vs veh, ACTR2 / RFU, PPP3R1 / Fold change vs veh, PPP3R1 / RFU, PIK3R1 / Fold change vs veh, PIK3R1 / RFU, HNRNPA1 / Fold change vs veh, HNRNPA1 / RFU, RNF170 / Fold change vs veh, RNF170 / RFU, ZNF28 / Fold change vs veh, ZNF28 / RFU, RNGTT / Fold change vs veh, RNGTT / RFU, OGT / Fold change vs veh, OGT / RFU, BRD1 / Fold change vs veh, BRD1 / RFU, MARS / Fold change vs veh, MARS / RFU, ZNF655 / Fold change vs veh, ZNF655 / RFU, FAHD1 / Fold change vs veh, FAHD1 / RFU, BDP1 / Fold change vs veh, BDP1 / RFU, LRRCC1 / Fold change vs veh, LRRCC1 / RFU, ARID1A / Fold change vs veh, ARID1A / RFU, ZNF146 / Fold change vs veh, ZNF146 / RFU, ZNF330 / Fold change vs veh, ZNF330 / RFU, GPN3 / Fold change vs veh, GPN3 / RFU, C9orf123 / Fold change vs veh, C9orf123 / RFU, N4BP2L2 / Fold change vs veh, N4BP2L2 / RFU, ARFIP1 / Fold change vs veh, ARFIP1 / RFU, FAM179B / Fold change vs veh, FAM179B / RFU, BCL10 / Fold change vs veh, BCL10 / RFU, UHRF1BP1L / Fold change vs veh, UHRF1BP1L / RFU, BET1 / Fold change vs veh, BET1 / RFU, CNOT2 / Fold change vs veh, CNOT2 / RFU, ZNF268 / Fold change vs veh, ZNF268 / Fold change vs veh, ZNF507 / RFU, DGCR2 / Fold change vs veh, DGCR2 / RFU, WDSUB1 / Fold change vs veh, WDSUB1 / Fold change vs veh, HSP90B1 /// MIR3652 / RFU, ADSS / Fold change vs veh, ADSS / RFU, GK / Fold change vs veh, GK / RFU, ZNF148 / Fold change vs veh, ZNF148 / RFU, TAF9 / Fold change vs veh, TAF9 / RFU, SLC1A5 / Fold change vs veh, SLC1A5 / RFU, SLMO2 / Fold change vs veh, SLMO2 / RFU, ABCC4 / Fold change vs veh, ABCC4 / RFU, LOC101060439 /// RAP1B / Fold change vs veh, LOC101060439 /// RAP1B / RFU, RFX7 / Fold change vs veh, RFX7 / RFU, GTPBP10 / Fold change vs veh, GTPBP10 / RFU, CNEP1R1 / Fold change vs veh, CNEP1R1 / RFU, BIVM-ERCC5 /// ERCC5 / Fold change vs veh, BIVM-ERCC5 /// ERCC5 / RFU, ILF3 / Fold change vs veh, ILF3 / RFU 11762660_at / Fold change /veh 11762660_at / RFU VCAN (11757783_s_at) / Fold change /veh VCAN (11757783_s_at) / RFU DDX43 (11728927_at) / Fold change /veh DDX43 (11728927_at) / RFU KRT8 (11758188_x_at) / Fold change /veh KRT8 (11758188_x_at) / RFU NKD1 (11759106_at) / Fold change /veh NKD1 (11759106_at) / RFU SRD5A1 (11742802_a_at) / Fold change /veh SRD5A1 (11742802_a_at) / RFU TPSAB1 /// TPSB2 (11721975_s_at) / Fold change /veh TPSAB1 /// TPSB2 (11721975_s_at) / RFU GSTM3 (11746129_a_at) / Fold change /veh GSTM3 (11746129_a_at) / RFU IL23R (11737362_x_at) / Fold change /veh IL23R (11737362_x_at) / RFU TMEM51 (11727254_a_at) / Fold change /veh TMEM51 (11727254_a_at) / RFU PIWIL2 (11732686_x_at) / Fold change /veh PIWIL2 (11732686_x_at) / RFU ORM1 (11744905_x_at) / Fold change /veh ORM1 (11744905_x_at) / RFU CCDC152 (11743942_at) / Fold change /veh CCDC152 (11743942_at) / RFU ECM1 (11717891_a_at) / Fold change /veh ECM1 (11717891_a_at) / RFU IL23R (11748794_a_at) / Fold change /veh IL23R (11748794_a_at) / RFU TNFAIP8L3 (11732012_x_at) / Fold change /veh TNFAIP8L3 (11732012_x_at) / RFU MBOAT4 (11741988_at) / Fold change /veh MBOAT4 (11741988_at) / RFU 11764193_at / Fold change /veh 11764193_at / RFU TMEM53 (11763286_at) / Fold change /veh TMEM53 (11763286_at) / RFU MAGEB2 (11727129_at) / Fold change /veh MAGEB2 (11727129_at) / RFU TMEM200A (11744735_a_at) / Fold change /veh TMEM200A (11744735_a_at) / RFU CCDC152 (11751479_a_at) / Fold change /veh CCDC152 (11751479_a_at) / RFU FAM211A (11726209_a_at) / Fold change /veh FAM211A (11726209_a_at) / RFU RGS16 (11746705_a_at) / Fold change /veh RGS16 (11746705_a_at) / RFU VCAN (11755009_s_at) / Fold change /veh VCAN (11755009_s_at) / RFU RHOB (11743442_s_at) / Fold change /veh RHOB (11743442_s_at) / RFU RGS16 (11720943_a_at) / Fold change /veh RGS16 (11720943_a_at) / RFU RGS16 (11720944_at) / Fold change /veh RGS16 (11720944_at) / RFU, VPS4B / Fold change vs veh, VPS4B / RFU, CREB1 / Fold change vs veh, CREB1 / RFU, DNAJC13 / Fold change vs veh, DNAJC13 / RFU, GNAQ / Fold change vs veh, GNAQ / RFU, CDK5R1 / Fold change vs veh, CDK5R1 / RFU, ZRANB3 / Fold change vs veh, ZRANB3 / RFU, CUL4A / Fold change vs veh, CUL4A / RFU, CCNY / Fold change vs veh, CCNY / RFU, UFL1 / Fold change vs veh, UFL1 / RFU, COG3 / Fold change vs veh, COG3 / RFU, DIAPH2 / Fold change vs veh, DIAPH2 / RFU, SKA2 / Fold change vs veh, SKA2 / RFU, AFF3 / Fold change vs veh, AFF3 / RFU, LMF1 / Fold change vs veh, LMF1 / RFU, IPO11 / Fold change vs veh, IPO11 / RFU, DFFB / Fold change vs veh, DFFB / RFU, FOXP1 / Fold change vs veh, FOXP1 / RFU, CARD8 / Fold change vs veh, CARD8 / RFU, STRN3 / Fold change vs veh, STRN3 / RFU, ADK / Fold change vs veh, ADK / RFU, RASSF2 / Fold change vs veh, RASSF2 / RFU, WIPF1 / Fold change vs veh, WIPF1 / RFU, LARP1B / Fold change vs veh, LARP1B / RFU, RASA1 / Fold change vs veh, RASA1 / RFU, RB1 / Fold change vs veh, RB1 / RFU, PPFIA1 / Fold change vs veh, PPFIA1 / RFU, MAT2A / Fold change vs veh, MAT2A / RFU, CCT5 / Fold change vs veh, CCT5 / RFU, WDR92 / Fold change vs veh, WDR92 / RFU, CUX1 / Fold change vs veh, CUX1 / RFU, TTC7A / Fold change vs veh, TTC7A / RFU, TMEM135 / Fold change vs veh, TMEM135 / RFU, DEPTOR / Fold change vs veh, DEPTOR / RFU, CPM / Fold change vs veh, CPM / RFU, DNAJB6 / Fold change vs veh, DNAJB6 / RFU, CACNA2D3 / Fold change vs veh, CACNA2D3 / RFU, DTX4 / Fold change vs veh, DTX4 / RFU, TFCP2 / Fold change vs veh, TFCP2 / RFU, GMCL1 /// GMCL1P1 / Fold change vs veh, GMCL1 /// GMCL1P1 / RFU, AEBP2 / Fold change vs veh, AEBP2 / RFU, SNHG1 /// SNORD22 /// SNORD25 /// SNORD26 /// SNORD27 /// SNORD28 /// SNORD29 /// SNORD31 / Fold change vs veh, SNHG1 /// SNORD22 /// SNORD25 /// SNORD26 /// SNORD27 /// SNORD28 /// SNORD29 /// SNORD31 / Fold change (Aza/veh), C12orf56 (ProbeSet 11735607_a_at) / Fold change (ACY-1035/veh), C12orf56 (ProbeSet 11735607_a_at) / Fold change (Aza/veh), FGFR1OP (ProbeSet 11751329_s_at) / Fold change (ACY-1035/veh), FGFR1OP (ProbeSet 11751329_s_at) / Fold change (Aza/veh), VPS36 (ProbeSet 11739960_a_at) / Fold change (ACY-1035/veh), VPS36 (ProbeSet 11739960_a_at) / RFU SYPL1 (11715823_x_at) / Fold change /veh SYPL1 (11715823_x_at) / RFU IGFBP7 (11715501_s_at) / Fold change /veh IGFBP7 (11715501_s_at) / RFU REEP3 (11722064_at) / Fold change /veh REEP3 (11722064_at) / RFU IGLL1 (11728026_x_at) / Fold change /veh IGLL1 (11728026_x_at): dose or concentration left out as unconfirmed
Conditions: MV-4-11 cells, 48 hours

## Nc1ccc(-c2cccs2)cc1NC(=O)c1ccc2c(c1)cc(C1CC1)n2CCN1CCOCC1 [ACY-1035]
  RFU DDX43 (11728927_at): 10.07 RFU
